Measured values reported in patent publication US10898536B2, “Method of inhibiting propionibacterium acnes” (Sami Labs Limited, priority 2016, dated 2021).
Converted amounts (≈) assume the structure as drawn.

Legend:
[1] = test system: Propionibacterium acnes (ATCC 11827); test: Antibacterial activity by agar well diffusion method (zone of inhibition); format: cell-based; details: P. acnes, 48 h anaerobic, inhibition detected in all tested concentrations (10-1.25 μg/mL)
Experimental: In vitro anti-acne activity of isolated compounds 1 and 2 from the stem bark extract of Artocarpus hirsutus were evaluated against acne causing bacterium, Propionibacterium acnes. The antibacterial activity was determined by agar well diffusion method. The minimum inhibitory concentration (MIC) of the compounds were then ascertained by broth micro dilution method.
Microorganisms: Acne causing bacterium Propionibacterium acnes (ATCC 11827) was procured from American type culture collection Rockville, USA.
Media: Reinforced Clostridial Agar (Hi Media; M154) and Reinforced Clostridial broth (Hi Media; M443) were used in the experiments.
The antibacterial activities of isolated compounds were performed by agar well diffusion method. The samples were dissolved in DMSO to obtain a concentration in the range of 0.5-100 mg/mL. Propionibacterium acnes was cultured on Reinforced Clostridial Agar (RCA) M154 procured from Hi Media and incubated at 37° C. for 48 h in an anaerobic chamber providing gas mixture containing 80% nitrogen, 10% carbon dioxide and 10% hydrogen. The bacterial culture was suspended in sterile normal saline and adjusted to 1.0×10^8 CFU/mL (CLSI, M02-A11; Vol. 32 No. 1). The sterile RCA was seeded with the standardized culture of P. acnes and poured into plates. […] The diameter of zone of inhibition around the wells were measured and recorded.

[2] = test system: Propionibacterium acnes (ATCC 11827); test: Minimum inhibitory concentration by broth micro dilution method; format: cell-based; details: Cutibacterium acnes, ATCC11827, P. acnes, 37° C., 48 h, anaerobic
Experimental: In vitro anti-acne activity of isolated compounds 1 and 2 from the stem bark extract of Artocarpus hirsutus were evaluated against acne causing bacterium, Propionibacterium acnes. The antibacterial activity was determined by agar well diffusion method. The minimum inhibitory concentration (MIC) of the compounds were then ascertained by broth micro dilution method. Microorganisms: Acne causing bacterium Propionibacterium acnes (ATCC 11827) was procured from American type culture collection Rockville, USA. Media: Reinforced Clostridial Agar (Hi Media; […]) and Reinforced Clostridial broth (Hi Media; […]) were used in the experiments. The minimum inhibitory concentrations (MIC) of the isolated compounds against P. acnes were determined by broth micro dilution method. Two-fold dilutions of the isolated compounds were prepared in Reinforced Clostridial broth (RCB) to obtain concentrations in the range of 0.1-2000 μg/mL. The diluted samples were loaded in 96-well micro titre plates. The samples were inoculated with the test culture of P. acnes so that the final concentration of the bacteria in each well is 1×10^5 CFU (CLSI, M11-A8; Vol. 32 No. 5). The plates were incubated under anaerobic conditions at 37° C. for 48 h and thereafter observed for inhibition of bacterial growth. The minimum concentration required for inhibiting the growth of P. acnes was considered as minimum inhibitory concentration (MIC).

[3] = Solubility in solvents (observed when recording NMR); format: physicochemical; details: most of the solvents except DMSO
Source text: In ^1H NMR spectrum, the phenolic OH (5-OH) adjacent to the carbonyl was assigned from the downfield signal at δ 13.36 ppm (70%) and 13.33 ppm (30%) and these two signals appeared due to the presence of the two conformers α and β in about 70:30 ratio. The assignment of two doublets at δ 7.15 ppm (˜30%) and 6.94 ppm (˜70%) was crucial in ^1H NMR spectrum. Nonetheless the disappearance of these two signals in D2O exchanged ^1H NMR spectrum (FIG. 5) ascertained that these two doublet signals are nothing but appeared due to the presence of the hydroxyl group (14-OH) sustaining powerful coupling with anomeric proton (14-H). Thus the signals at δ 7.15 ppm (d, ˜30%, β-OH, J=7.5 Hz) and at 6.94 ppm (d, ˜70%, α-OH, J=4.2 Hz) were assigned corresponding to the anomeric 14-OH. Similarly, though the anomeric proton (14-H) was expected to appear as a doublet however owing to further coupling with 14-OH, it appeared as two signals one as double doublets at δ 5.32 ppm (dd, ˜70%, 14-α-H, J=4.2 Hz, 2.1 Hz) and another one as triplet at 4.87 ppm (t, ˜30%, 14-β-H, J=7.8 Hz). The coupling interferences in 14-α/β-H due to 14-OH was disappeared in D2O exchanged ^1H NMR spectrum (FIG. 5) and signals were clearly appeared as doublets at δ 5.28 (d, ˜70%, 14-α-H, J=1.2 Hz) and 4.81 ppm (d, ˜30%, 14-β-H, J=8.7 Hz). As expected the signals ratio ˜70:30 were reflected in the ^13C NMR spectrum also. […]

SMILES | zone of inhibition around the wells [1] | MIC [2] [µg/mL] | solubility [3]
CC(C)=CCc1c(-c2cc(O)c(O)cc2O)oc2c3c(cc(O)c2c1=O)OC(C)(C)C=C3 [Artonine E] | good inhibition | 2 (≈ 4.58 µM) | 
CC1C(O)Oc2c(O)cc(O)c3c2C1Cc1c-3oc2c3c(cc(O)c2c1=O)OC(C)(C)C=C3 (stereo not drawn) [pyranocycloartobiloxanthone A (α & β), Pyranocycloartobiloxanthone A] | good inhibition | 2 (≈ 4.44 µM) | relatively poor
CCC[C@@H]1C[C@@H](C(=O)N[C@@H]([C@H]2O[C@H](SC)[C@H](O)[C@@H](O)[C@H]2O)[C@H](C)Cl)N(C)C1 [Clindamycin, reference compound] |  | 0.03 (≈ 0.0706 µM) | 
